Test results reported in US5373020A, “Substituted 5-(2-((2-aryl-2-hydroxyethyl)amino)propyl)-1,3-benzodioxoles” (American Cyanamid Company, priority 1993, dated 1994).
Like-named read-outs stand apart in the source and are kept apart here.

How the values were obtained:
ob/ob mice = assay: Plasma glucose, compound in chow, obese mice; assay type: in vivo, mouse (C57 B1/6J ob/ob)
Method: (§1) The compounds of this invention were tested for hypoglycemic and anti-obesity activity according to the following procedure.
(§2) Obese mice (C57 B1/6J (ob/ob)), and/or diabetic mice (C57 B1/KsJ (db/db)) were obtained from Jackson Laboratories, Bar Harbor, Maine. Obese rats (fa/fa) were obtained from Charles River Laboratories, Wilmington, Mass. Obese mice were 8 weeks of age and diabetic mice were 9 weeks of age at the start of the test. Obese rats were 12-14 weeks of age at the start.
(§3) The test compounds were dissolved in methanol, mixed with powdered Purina rodent chow on a weight of compound to weight of chow basis and thoroughly dried.
(§4) Groups of 6 control mice or rats received vehicle (methanol) treated chow.
[…] Thus, a 40 g mouse, fed the test compound at a concentration of 0.02 percent of the diet, would receive a dose of 20 mg/kg/day if it ate 4 g of chow per day.
(§5) The mice or rats were weighed before the first treatment and once at the end of each indicated treatment period.
(§6) Blood samples were collected before the first treatment and once at the end of each indicated treatment period by retro-orbital puncture using heparinized capillary tubes.
(§7) Plasma was separated by centrifugation in a Beckman microfuge for 5 minutes. Plasma glucose concentrations were determined with the Beckman glucose analyzer which uses a glucose oxidase method.

β3-receptors = biological target: T1, β3-receptors (Rattus norvegicus, UniProt P26255); assay: Stimulation of adipocyte lipolysis (β3-effect); assay type: cell-based
T1 construct: Rat epididymal fat pads were excised and placed in 0.9% saline; from tissue; host or cells: collagenase-isolated adipocytes from rat epididymal fat pads
T1 sequence (P26255 whole entry): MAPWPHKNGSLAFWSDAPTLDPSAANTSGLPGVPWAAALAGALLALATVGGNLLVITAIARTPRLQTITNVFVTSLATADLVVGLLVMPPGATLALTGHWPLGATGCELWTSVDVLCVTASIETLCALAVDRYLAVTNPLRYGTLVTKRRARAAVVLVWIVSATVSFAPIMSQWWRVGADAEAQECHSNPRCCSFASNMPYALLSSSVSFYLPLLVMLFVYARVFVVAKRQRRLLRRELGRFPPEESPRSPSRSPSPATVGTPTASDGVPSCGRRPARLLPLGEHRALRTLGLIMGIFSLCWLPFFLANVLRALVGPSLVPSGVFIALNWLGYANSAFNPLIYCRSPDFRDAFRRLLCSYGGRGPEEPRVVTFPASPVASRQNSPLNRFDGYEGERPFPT
Method: (§8) β-Adrenergic receptors can be divided into β1, β2 and β3 -subtypes. Activation of β1 -receptors invokes increases in heart rate while activation of β2 -receptors stimulates glycogen breakdown in muscle and thereby prevents glycogen synthesis. Activation of β3 -receptors stimulates lipolysis (the breakdown of adipose tissue triglycerides to glycerol and free fatty acids), and thereby promotes the loss of fat mass.
The β3 -effect of the compounds was determined by their ability to stimulate adipocyte lipolysis. Rat epididymal fat pads were excised and placed in 0.9% saline. Four grams of tissue were transferred to a flask with 20 ml of aerated Krebs-Henseleit bicarbonate (KHB) buffer containing 3% fatty acid-free bovine serum albumin to which 75 mg of crude bacterial collagenase (Worthington) had been added. The tissue was incubated for about 45 minutes at 37° C. with gentle shaking. The cells were then washed three times with two volumes of KHB buffer, filtered through two layers of gauze, and brought to a final volume of 80 ml with KHB buffer. One ml aliquots of the cell suspension were added to plastic test tubes containing the appropriate additions of vehicle or compound. The cells were gassed for 1 minute with 95% O2 -5% CO2, capped, and incubated at 37° C. with continuous shaking for a total of 30 minutes. The reaction was stopped by adding 0.1 ml of 30% perchloric acid and 0.1 ml of chloroform. After centrifugation, 0.5 ml of supernatant was transferred to another test tube and neutralized with 0.04 ml of 3M K2 CO3 -0.5M triethanolamine. The amount-of glycerol generated from the hydrolysis of endogenous triglycerides was determined in a coupled-enzyme spectrophotometric assay. […] The test tubes were incubated for 40 minutes at 37° C. with constant shaking. […] This value was corrected for the amount of NADH generated in the absence of glycerol by incubating another aliquot of the neutralized extract with the same assay mixture but without glycerokinase.

β1-receptors = biological target: T2, β1-receptors (Cavia porcellus, UniProt H0W3H1); assay: Effect on heart rate of isolated right atria (β1-effect); set-up: species or system guinea pig; conditions: for β1 activity: CL1 vs BRL1 (FIG. 1), CL2 vs BRL2 (FIG. 2)
T2 construct: from tissue; host or cells: guinea pig right atria
T2 sequence (H0W3H1 1-470): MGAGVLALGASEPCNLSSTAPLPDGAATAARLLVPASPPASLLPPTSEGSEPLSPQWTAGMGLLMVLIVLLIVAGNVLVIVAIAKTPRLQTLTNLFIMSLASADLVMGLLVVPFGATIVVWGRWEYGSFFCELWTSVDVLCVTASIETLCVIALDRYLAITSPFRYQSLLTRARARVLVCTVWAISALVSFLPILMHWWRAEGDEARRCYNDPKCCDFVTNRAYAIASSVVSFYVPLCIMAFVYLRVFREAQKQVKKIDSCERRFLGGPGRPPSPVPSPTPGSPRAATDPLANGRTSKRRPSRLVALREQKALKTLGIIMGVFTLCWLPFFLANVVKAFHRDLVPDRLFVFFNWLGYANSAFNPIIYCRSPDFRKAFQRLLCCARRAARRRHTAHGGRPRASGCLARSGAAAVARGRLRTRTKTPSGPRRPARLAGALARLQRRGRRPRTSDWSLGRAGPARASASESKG
Method: as §8
Selectivity of a compound was determined using the following procedures. The effect on heart rate (β1 -effect) was determined using isolated right atria. […] The right atria were dissected and clamped at one end to a tissue holder and electrode assembly (MRA Corp.) and tied at the other end to a force-displacement transducer (Gould-Statham, Burco). The tissues were maintained at 32° C. in a 50 ml capacity glass chamber (MRA Corp.) preloaded with 0.5 g tension. Heart rate was monitored by a Grass polygragh. […] The increase in heart rate was calculated and considered to be the maximum response for that tissue. The tissues were then washed and allowed to equilibrate for 90 minutes. Cumulative concentration-response curves were then determined for each compound or vehicle. All responses were measured 5 minutes post-exposure.

β2-receptors = biological target: T3, β2-receptors (Mus musculus, UniProt P18762); assay: Inhibition of insulin-mediated incorporation of 14C-glucose into glycogen in isolated soleus muscle (β2-effect); conditions: for β2 activity: CL1 vs BRL1 (FIG. 1), CL2 vs BRL2 (FIG. 2)
T3 construct: Soleus muscle from mice were dissected; from tissue; host or cells: mouse soleus muscle
T3 sequence (P18762 whole entry): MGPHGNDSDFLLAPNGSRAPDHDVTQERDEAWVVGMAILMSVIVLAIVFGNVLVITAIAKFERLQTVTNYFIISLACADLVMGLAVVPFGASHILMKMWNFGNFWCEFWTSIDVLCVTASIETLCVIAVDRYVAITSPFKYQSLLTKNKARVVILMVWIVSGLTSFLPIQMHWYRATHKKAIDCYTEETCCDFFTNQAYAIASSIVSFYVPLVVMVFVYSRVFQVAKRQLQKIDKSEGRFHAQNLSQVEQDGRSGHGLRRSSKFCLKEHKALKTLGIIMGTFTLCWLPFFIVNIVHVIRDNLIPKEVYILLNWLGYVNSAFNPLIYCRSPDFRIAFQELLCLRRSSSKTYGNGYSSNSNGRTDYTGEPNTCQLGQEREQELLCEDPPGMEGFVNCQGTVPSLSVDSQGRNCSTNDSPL
Method: as §8
The β2 -effect of the compounds was determined by their ability to inhibit the insulin-mediated incorporation of ^14 C-glucose into glycogen in isolated muscle. Soleus muscle from mice were dissected, tied at each end, and placed in a clamp to maintain tension. The clamped muscle was added to a vial that contained 2 ml of KHB with 1.5% bovine serum albumin, 0.3 mU/ml insulin, 5 mM (U^-14 C) glucose, and the appropriate additions of compound or vehicle. The vial was gassed with 95% O2 -5% CO2, capped, and the tissue incubated for one hour in a rotating water bath at 37° C. The muscle was then removed, rinsed in ice-cold saline, blotted and weighed. It was then added to 1 ml of 30% KOH containing 5 mg/ml of oyster glycogen, boiled for 10 minutes, and 0.4 ml of 2% Na2 SO4 and 3.2 ml of 100% ethanol added. After standing overnight at 4° C., the glycogen was pelleted by centrifugation, washed once with 66% ethanol, and repelleted. The pellet was dissolved in 1 ml of water and the amount of radioactivity present determined by liquid scintillation.

db/db mice = assay: Plasma glucose, compound in chow, diabetic mice; assay type: in vivo, mouse (C57 B1/KsJ db/db); conditions: dose 0.005 % wt of chow
Method: as §1, §2, §3, §4
Groups of 6 test mice were fed ad libitum for up to seven weeks and food consumption was measured daily by weighing the food bins before and after the addition of fresh chow. Thus, a 40 g mouse, fed the test compound at a concentration of 0.02 percent of the diet, would receive a dose of 20 mg/kg/day if it ate 4 g of chow per day.
as §5, §6, §7

[1] = dose 0.002 % wt of chow, week 0 (before treatment)
[2] = dose 0.002 % wt of chow, week 1
[3] = dose 0.005 % wt of chow, week 0 (before treatment)
[4] = dose 0.005 % wt of chow, week 1
[5] = dose 0.02 % wt of chow, week 0 (before treatment)

C[C@H](Cc1ccc2c(c1)OCO2)NC[C@H](O)c1cccc(Cl)c1 (racemic) [(R*,R*)-(+/-)-alpha-(((2-(1,3-benzodioxol-5-yl)-1-methylethyl)amino)methyl)-3-chlorobenzenemethanol mixture with (R*,S*)-(+/-)alpha-(((2-(1,3-benzodioxol-5-yl)-1-methylethyl)amino)methyl)-3-chlorobenzenemethanol, reference compound]
Plasma Glucose Levels (ob/ob mice; [1]): 226 mg/100 ml | Plasma Glucose Levels (ob/ob mice; [2]): 234 mg/100 ml | Plasma Glucose Levels (ob/ob mice; [3]): 227 mg/100 ml | Plasma Glucose Levels (ob/ob mice; [4]): 175 mg/100 ml | Plasma Glucose Levels (ob/ob mice; [5]): 227 mg/100 ml | Plasma Glucose Levels (ob/ob mice; dose 0.02 % wt of chow, week 1): 149 mg/100 ml

COC(=O)C1(C(=O)OC)Oc2ccc(C[C@@H](C)NC[C@H](O)c3cccc(Cl)c3)cc2O1 (stereo in doubt) [CL5, (R,R)(+/-)5-(2-((2-(3-chlorophenyl)-2-hydroxyethyl)-amino)propyl)-1,3-benzodioxole-2,2-dicarboxylic acid, dimethyl ester hydrobomide]
relative β3 potency of RR over SS form (β3-receptors; RR vs SS enantiomer, lipolysis): 36 fold

COC(=O)C1(C(=O)OC)Oc2ccc(C[C@H](C)NC[C@@H](O)c3cccc(Cl)c3)cc2O1 (stereo in doubt) [CL6, (S,S)(+/-)5-(2-((2-(3-chlorophenyl)-2-hydroxyethyl)-amino)propyl)-1,3-benzodioxole-2,2-dicarboxylic acid, dimethyl ester hydrobomide]
EC50 (β3-receptors; read-out: Lipolysis (β3) (EC50)): 290 nM

C[C@H](Cc1ccc(OCC(=O)[O-])cc1)NC[C@H](O)c1cccc(Cl)c1.[Na+] (relative stereo) [BRL2, (R*,R*)(+/-)4-(2-((2-(3-chlorophenyl)-2-hydroxyethyl)amino)propyl)phenoxy-acetic acid, monosodium salt]
EC50 (β1-receptors): 5600 nM | β1 activity (β1-receptors): significant β1 activity | EC50 (β2-receptors): 800 nM | β2 activity (β2-receptors): full agonist with measurable activity at 1×10^-7M

C[C@@H](Cc1ccc2c(c1)OCO2)NC[C@H](O)c1cccc(Cl)c1 (relative stereo) [(R*,S*)-(+/-)-alpha-(((2-(1,3-benzodioxol-5-yl)-1-methylethyl)amino)methyl)-3-chlorobenzenemethanol, reference compound]
Plasma Glucose Levels (ob/ob mice; [1]): 228 mg/100 ml | Plasma Glucose Levels (ob/ob mice; [2]): 204 mg/100 ml | Plasma Glucose Levels (ob/ob mice; [3]): 226 mg/100 ml | Plasma Glucose Levels (ob/ob mice; [4]): 176 mg/100 ml | Plasma Glucose Levels (ob/ob mice; [5]): 229 mg/100 ml | Plasma Glucose Levels (ob/ob mice; dose 0.02 % wt of chow, week 1): 128 mg/100 ml

COC(=O)C1(C(=O)OC)Oc2ccc(C[C@@H](C)NC[C@@H](O)c3cccc(Cl)c3)cc2O1 (relative stereo) [(R*,S*)-(+/-)-5(2-((2-(3-chlorophenyl))-2-hydroxyethyl)amino)propyl)-1,3-benzodioxole-2,2-dicarboxylic acid, dimethyl ester]
Plasma Glucose Levels (ob/ob mice; [3]): 218 mg/100 ml | Plasma Glucose Levels (ob/ob mice; dose 0.005 % wt of chow, week 5): 162 mg/100 ml | Plasma Glucose Levels (ob/ob mice; dose 0.005 % wt of chow, week 10): 174 mg/100 ml | Plasma Glucose Levels (ob/ob mice; [5]): 219 mg/100 ml | Plasma Glucose Levels (ob/ob mice; dose 0.02 % wt of chow, week 5): 135 mg/100 ml | Plasma Glucose Levels (ob/ob mice; dose 0.02 % wt of chow, week 10): 153 mg/100 ml

COC(=O)COc1ccc(C[C@@H](C)NC[C@H](O)c2ccc(Cl)cc2)cc1 (relative stereo) [BRL1, (R*,R*)-(±)-(4-(2-((2-(4-chlorophenyl)-2-hydroxyethyl)amino)propyl)phenoxy)-acetic acid, methyl ester, reference compound]
Plasma Glucose Levels (db/db mice; week 0 (before treatment)): 440 mg/100 ml | Plasma Glucose Levels (db/db mice; week 1): 138 mg/100 ml | Plasma Glucose Levels (db/db mice; week 2): 132 mg/100 ml | EC50 (β1-receptors): 200 nM | β1 activity (β1-receptors): more of the undesirable β1 and β2 activities than does CL1 | Plasma Glucose Levels (ob/ob mice; dose 0.0001 % wt of chow, week 0 (before treatment)): 231 mg/100 ml | Plasma Glucose Levels (ob/ob mice; dose 0.0001 % wt of chow, week 1): 143 mg/100 ml | Plasma Glucose Levels (ob/ob mice; dose 0.0001 % wt of chow, week 2): 119 mg/100 ml | Plasma Glucose Levels (ob/ob mice; dose 0.0005 % wt of chow, week 0 (before treatment)): 232 mg/100 ml | Plasma Glucose Levels (ob/ob mice; dose 0.0005 % wt of chow, week 1): 140 mg/100 ml | Plasma Glucose Levels (ob/ob mice; dose 0.0005 % wt of chow, week 2): 126 mg/100 ml | Plasma Glucose Levels (ob/ob mice; [3]): 231 mg/100 ml | Plasma Glucose Levels (ob/ob mice; [4]): 137 mg/100 ml | Plasma Glucose Levels (ob/ob mice; dose 0.005 % wt of chow, week 2): 138 mg/100 ml | EC50 (β2-receptors): 120 nM | β2 activity (β2-receptors): more of the undesirable β1 and β2 activities than does CL1 | EC50 (β3-receptors): 13 nM | β3 potency in comparison (β3-receptors; CL1 vs BRL1 (FIG. 1), CL2 vs BRL2 (FIG. 2)): slightly greater β3 potency | Selectivity for Lipolysis over Atria ((EC50 - β1)/(EC50 - β3)) (β3-receptors; ratio EC50 β1 / EC50 β3): 15 | Selectivity for Lipolysis over Gly. Syn. ((EC50 - β2)/(EC50 - β3)) (β3-receptors; ratio EC50 β2 / EC50 β3): 9
